Assay results from patent publication US20130136811A1, “Compositions and Methods for Pain Reduction” (priority 2010, published 2013).
“And” between values parts separate entries of the source, which are not always exact repeats. Equal entries are not always repeated.

Assays:
[1] = tested on: primary cultures of mouse cortical neurons; assay: NMDAR-mediated excitotoxicity, LDH cell death assay; assay type: cell-based; conditions: for neuroprotective effect (% protection): NMDA 200 μM 5 minutes, glycine 10 μM, LDH 24 hours after
Method: Studies were carried out to determine whether application of Wogonin can prevent N-methyl-D-Aspartate receptor (NMDAR)-mediated excitotoxicity in primary neuronal cultures from mouse cortex in vitro. In particular, detailed dose/response curves of Wogonin applied together with and for the duration of application of NMDA were generated. NMDAR-induced cytotoxicity can lead to fulminant cell death, necrosis, or a delayed form of cell death (apoptosis). While necrosis leads to immediate cell lysis, apoptotic cell death develops over time and is distinguished by a number of criteria such as characteristic morphological changes and DNA fragmentation. The LDH assay was used for the determination of cell death. This assay assesses primary necrosis as well as secondary, necrotic cell death subsequent to apoptosis.
For these experiments, cytotoxicity assays were conducted in primary cultures of mouse cortical neurons after 10 days in vitro using an art-recognized assay systema (Sun X, Chan L N, Gong X, Sucher N J. N-methyl-D-Aspartate receptor antagonist activity in traditional Chinese stroke medicines. NeuroSignals, 2003; 12:31-38.) Cultured neurons were exposed to NMDA (200 μM; 5 minutes) and co-agonist glycine (10 μM) in the nominal absence of magnesium and the presence of increasing concentrations of Wogonin. Measurements were performed for each dose of Wogonin in triplicate in at least three independent experiments. Wogonin was added to the culture in three different ways: 1) before, concomitant with and after NMDA, 2) concomitant with and after NMDA and 3) after NMDA. Twenty-four hours after exposure to NMDA cell death is determined by colorimetric lactate dehydrogenase (LDH) assay.

[2] = tested on: mouse formalin pain model; assay: mouse formalin pain model (paw licking); assay type: in vivo; conditions: for Duration of Licking: 200 mg/kg, individual animals 01-08; for Area Under the Curve, Drug Treated: 200 mg/kg i.p.
Method: The formalin test for antinociceptive activity is described in numerous publications, e.g., Hunskaar, S. O. B. Fasmer, and K. Hole, J. Neurosci. Methods 14: 69-76 (1985). The formalin test is a chemically-induced tonic pain model in which biphasic changes of nociceptive behavior are assessed and spinal/supraspinal plasticity of nociception is considered as a molecular basis for neuropathic pain particularly during the second (late) phase of the test, during which most clinically used drugs against neuropathic pain are active. The formalin test is accepted as an art recognized model of persistent clinical pain.
The formalin test (Wheeler-Aceto H, Porreca F, Cowan A. The rat paw formalin test: comparison of noxious agents. Pain 1990; 40:229-38) involves injection of 0.5% formalin into the mouse hind paw. The injection elicits a distinct biphasic behavioral profile in response to the formalin injection characterized by licking of the affected paw, and the number of licks is measured as a proxy for perceived pain. The first (acute) phase corresponds to the direct stimulation of peripheral fibers, while the second (inflammatory) phase is caused by the release of inflammatory mediators from the damaged tissue and nerve endings. Thus, this model is ideally suited to test the efficacy of Wogonin against the acute and chronic hyper-responsive neuronal discharges following activation of peripheral nerve fibers.
The results of the formalin test are given both as raw data (“Response”) and in an aggregate, analyzed form (“Analysis”). In the Response section, each Trial involves sixteen animals, eight controls given an i.p. injection of vehicle and eight given Wogonin at a specified dose. The data recorded for each animal is the amount of time spent licking the affected hind paw in a two-minute period. These two-minute periods occur at five-minute intervals and continue for […]. […] From this plot, the area under the cure (AUC) is determined for each animal during both the acute and inflammatory stages. The AUC for each phase is shown in the analysis section of the data sheet for both control and Wogonin-treated animals. The AUC for each Wogonin-treated animal is compared to the average result from the control group, yielding an average percent of control (reported with the SEM and p value). Significant reductions in this number indicate a reduction in licking, and, presumably, a reduction of perceived pain.
Male Swiss Webster NIH mice (20-30 g; Harlan, San Diego, Calif.) were used in the experiments described herein. Food was withdrawn on the day of experiment. Mice were placed in Plexiglass jars for at least 1 hour to accommodate to the environment. Following the accommodation period, mice were weighed and given Wogonin administered intraperitoneal (i.p.) or the appropriate volume of vehicle (10% Tween-80). Fifteen minutes after the i.p. dosing, mice were injected with formalin (20 μL of 5% formaldehyde solution in saline) into the dorsal surface of the right hind paw. Mice were transferred to the Plexiglass jars and monitored for the amount of time spent licking or biting the injected paw. Periods of licking and biting were recorded in 5 minute intervals for 40 minutes after the formalin injection. All experiments were done in a blinded manner. The early phase (acute) of the formalin response is measured as licking/biting between 0-10 minutes, and the late phase (inflammatory) is measured from 10-40 minutes. Differences between vehicle and Wogonin-treated groups are analyzed by one-way analysis of variance (ANOVA). A P value <0.05 is considered significant. Activity in blocking the acute and second phase of formalin-induced paw-licking activity is indicative that compounds are efficacious for acute and chronic pain. A significant response to both the acute and the inflammatory phases of the test was observed.

Compound: COc1c(O)cc(O)c2c(=O)cc(-c3ccccc3)oc12 [Wogonin, 5,7-dihydroxy-8-methoxyflavone]
- neuroprotective effect (% protection) ([1]; 10^−4 M Wogonin): > 75%
- neuroprotective effect (% protection) ([1]; 10^−9 M Wogonin): 0%
- IC50 ([1]; Cortical neurone, mouse cortical neurons, LDH assay, read-out: IC50, inhibition of neuronal death on exposure to N-methyl-D-aspartate): 2000 nM
- Duration of Licking ([2]; 0 mm): 0.00 sec (3×) and 35.48 sec and 21.75 sec and 53.96 sec and 44.26 sec and 32.29 sec
- Duration of Licking ([2]; 5 min): 0.00 s
- Duration of Licking ([2]; 10 min): 0.00 s
- Duration of Licking ([2]; 20 min): 0.00 sec (7×) and 16.00 sec
- Duration of Licking ([2]; 25 min): 0.00 sec (5×) and 3.89 sec and 20.61 sec and 10.96 sec
- Duration of Licking ([2]; 30 min): 0.00 sec (4×) and 29.12 sec and 55.07 sec and 2.95 sec and 37.69 sec
- Duration of Licking ([2]; 35 min): 0.00 sec (6×) and 21.24 sec and 12.73 sec
- Duration of Licking ([2]; 40 min): 0.00 sec (6×) and 20.18 sec and 27.36 sec
- Area Under the Curve, Drug Treated ([2]; Acute phase): 58.7
- Area Under the Curve, Drug Treated ([2]; Inflammatory phase): 146.3
- overt toxicity ([2]; mouse models): Overt toxicity was not seen
